Test results published in paper PMC7722354, “7-Substituted 2-Nitro-5,6-dihydroimidazo[2,1-b][1,3]oxazines: Novel Antitubercular Agents Lead to a New Preclinical Candidate for Visceral Leishmaniasis” (Journal of Medicinal Chemistry, 2017).
≈ marks a conversion by molar mass, not a printed value.

Tests used:
M. tb, strain H37Rv [1] = assay: LORA minimum inhibitory concentration assay (hypoxic); type: cell-based; settings: Mycobacterium tuberculosis
Leishmania infantum = assay: L. inf growth inhibition in mouse macrophages (LMPH); type: cell-based; settings: Macrophage, mean of at least two determinations
M. tb, strain H37Rv [2] = assay: MABA minimum inhibitory concentration assay (aerobic); type: cell-based, Mycobacterium tuberculosis; settings: Mycobacterium tuberculosis, H37RV
Trypanosoma cruzi = assay: T. cruzi growth inhibition on MRC-5 cells (LMPH); type: cell-based; settings: MRC5
[3] = test system: human lung fibroblasts (MRC-5 cells); assay: cytotoxicity toward MRC-5 cells (LMPH); type: cell-based; settings: MRC5
Leishmania donovani = assay: L. don amastigote mouse macrophage-based luciferase assay (CDRI); type: cell-based; settings: in mouse macrophages, single test (CDRI)
[4] = kinetic aqueous solubility (Method A); type: physicochemical; settings: water, pH 7, kinetic, water (pH 7), 20 °C; read-out: aq solubility pH 7

Compound | MIC (M. tb, strain H37Rv [1]) | IC50 (Leishmania infantum) | MIC (M. tb, strain H37Rv [2]; aerobic, read-out: MIC MABA) | IC50 (Trypanosoma cruzi) | IC50 [3] | IC50 (Leishmania donovani) | MIC (M. tb, strain H37Rv [2]; read-out: MIC MABA, aerobic) | solubility at 15 min [4]
CC1(COc2ccc(-c3ccc(F)nc3F)nc2)CCn2cc([N+](=O)[O-])nc2O1 (stereo not shown) [compound 115] | 18 µM (≈ 7.26 µg/mL) | 280 nM | 0.94 µM (≈ 0.379 µg/mL) | 380 nM | > 64000 nM | 110 nM | – | –
O=[N+]([O-])c1cn2c(n1)OC(COc1cccc(-c3ccc(F)nc3)n1)CC2 (stereo not shown) [compound 117] | > 128 µM | 44000 nM | – | 130 nM | 35000 nM | > 10000 nM | > 128 µM | –
O=[N+]([O-])c1cn2c(n1)OC(COc1cccc(-c3ccc(F)nc3F)n1)CC2 (stereo not shown) [compound 119] | 10 µM (≈ 3.89 µg/mL) | 6700 nM | 4.3 µM (≈ 1.67 µg/mL) | 130 nM | > 64000 nM | 250 nM | – | –
O=[N+]([O-])c1cn2c(n1)OC(COc1ccc(-c3ccc(F)cc3)nn1)CC2 (stereo not shown) [compound 123] | 23 µM (≈ 8.54 µg/mL) | 8400 nM | 0.35 µM (≈ 0.13 µg/mL) | 670 nM | > 64000 nM | 70 nM | – | –
O=[N+]([O-])c1cn2c(n1)OC(COc1cnc(-c3ccc(F)cc3)cn1)CC2 (stereo not shown) [compound 126] | > 128 µM | 710 nM | 0.15 µM (≈ 0.0557 µg/mL) | 4700 nM | > 64000 nM | 150 nM | – | –
CC1(COc2ncc(-c3ccc(F)cc3)cn2)CCn2cc([N+](=O)[O-])nc2O1 (stereo not shown) [compound 131] | 6.3 µM (≈ 2.43 µg/mL) | 290 nM | 0.44 µM (≈ 0.17 µg/mL) | 430 nM | 57000 nM | 320 nM | – | –
O=[N+]([O-])c1cn2c(n1)OC(COc1ncc(-c3ccc(F)nc3)cn1)CC2 (stereo not shown) [compound 132] | 21 µM (≈ 7.82 µg/mL) | > 64000 nM | 0.24 µM (≈ 0.0894 µg/mL) | 3300 nM | > 64000 nM | 530 nM | – | –
CC1(COc2ncc(-c3ccc(F)nc3)cn2)CCn2cc([N+](=O)[O-])nc2O1 (stereo not shown) [compound 133] | 54 µM (≈ 20.9 µg/mL) | 6100 nM | 23 µM (≈ 8.89 µg/mL) | 2900 nM | > 64000 nM | 1300 nM | – | –
O=[N+]([O-])c1cn2c(n1)OC(COc1cnc(-c3ccc(F)cc3)nc1)CC2 (stereo not shown) [compound 139] | 20 µM (≈ 7.43 µg/mL) | 210 nM | 0.27 µM (≈ 0.1 µg/mL) | 260 nM | 62000 nM | 70 nM | – | 0.59 µg/mL (≈ 1.59 µM)
CC1(CN2CCN(c3ccc(F)cc3)CC2)CCn2cc([N+](=O)[O-])nc2O1 (stereo not shown) [compound 144] | 6.8 µM (≈ 2.55 µg/mL) | 730 nM | 0.34 µM (≈ 0.128 µg/mL) | 1300 nM | > 64000 nM | 700 nM | – | –
O=[N+]([O-])c1cn2c(n1)OC(CN1CCC(c3ccc(F)cc3)CC1)CC2 (stereo not shown) [compound 147] | 11 µM (≈ 3.96 µg/mL) | 870 nM | 2.1 µM (≈ 0.757 µg/mL) | 2900 nM | > 64000 nM | 880 nM | – | –
CC1(CN2CCC(c3ccc(F)cc3)CC2)CCn2cc([N+](=O)[O-])nc2O1 (stereo not shown) [compound 149] | 8.3 µM (≈ 3.11 µg/mL) | 320 nM | 0.22 µM (≈ 0.0824 µg/mL) | 870 nM | > 64000 nM | 1000 nM | – | –
CC1(CN2CCC(Oc3ccc(F)cc3)CC2)CCn2cc([N+](=O)[O-])nc2O1 (stereo not shown) [compound 154] | 48 µM (≈ 18.7 µg/mL) | 320 nM | 0.23 µM (≈ 0.0898 µg/mL) | 590 nM | > 64000 nM | 220 nM | – | –
O=C(c1ccc(F)cc1)N1CCN(CC2CCn3cc([N+](=O)[O-])nc3O2)CC1 (stereo not shown) [compound 157] | > 128 µM | 45000 nM | 46 µM (≈ 17.9 µg/mL) | 11000 nM | > 64000 nM | 4800 nM | – | –
CC1(CN2CCN(C(=O)c3ccc(F)cc3)CC2)CCn2cc([N+](=O)[O-])nc2O1 (stereo not shown) [compound 159] | > 128 µM | 6500 nM | 93 µM (≈ 37.5 µg/mL) | 2800 nM | > 64000 nM | 2800 nM | – | –
O=C(OCC1CCn2cc([N+](=O)[O-])nc2O1)N1CCN(c2ccc(F)cc2)CC1 (stereo not shown) [compound 160, (2-Nitro-6,7-dihydro-5H-imidazo[2,1-b][1,3]oxazin-7-yl)methyl 4-(4-fluorophenyl)-piperazine-1-carboxylate] | 22 µM (≈ 8.92 µg/mL) | > 64000 nM | 2.5 µM (≈ 1.01 µg/mL) | 1500 nM | > 64000 nM | > 100000 nM | – | –
CC1(COC(=O)N2CCN(c3ccc(F)cc3)CC2)CCn2cc([N+](=O)[O-])nc2O1 (stereo not shown) [compound 161] | 8.4 µM (≈ 3.52 µg/mL) | 720 nM | 3.4 µM (≈ 1.43 µg/mL) | 3900 nM | > 64000 nM | 290 nM | – | –
